Source: article PMC11992225, “Antibacterial compounds against non-growing and intracellular bacteria” (npj Antimicrobials and Resistance, 2025)
Several values for one entry are separate records, joined by “and”; a condition that tells them apart may be missing. Identical values can stand only once.

Tests used:
[1] = tested on: non-growing S. aureus DSM2569; assay: Dose-dependent killing analysis (CFU spot-plating) of stationary-phase S. aureus;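 for average Δlog10(CFU/ml) (killing): drug concentration in µM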; format: cell-based, Staphylococcus aureus; details: S. aureus; for average Δlog10(CFU/ml) (killing): vs 9,097 before treatment; for log10(CFU/ml) after treatment: individual replicates
Summary of the method: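 Stationary-phase S. aureus DSM2569 was grown and treated for 24 h in 1:4 CA-MHB at pH 7.4. Treated samples were serially diluted 10-fold in PBS and spot-plated on LB agar, which was incubated overnight at 37 °C. Survivors were counted as CFU over three biological replicates.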

[2] = tested on: non-growing UPEC CFT073; assay: Dose-dependent killing analysis (CFU spot-plating) of stationary-phase UPEC; format: cell-based, Escherichia coli; details: for log10(CFU/ml) after treatment: E. coli in 1:4 CA-MHB (pH 7.4), individual replicates
Summary of the method: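 Non-growing (stationary-phase) UPEC CFT073 treated with compounds in 96-well format at 200 μl, then 10-fold serially diluted in PBS and 10 μl spots plated on LB agar. Plates incubated overnight at 37 °C; colonies counted at lowest resolvable dilution to give CFU. Three biological replicates.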

[3] = tested on: intracellular S. flexneri 5a M90T in TC7 cells; assay: microbe, parasite or virus in culture; format: cell-based, Shigella flexneri; details: for IC50: Shigella flexneri, TC7, 14 h
[4] = TC7 cells infected with GFP-expressing S. flexneri, 14 h treatment

| Structure (SMILES) | IC50 [3] [nM] | Fluorescence intensity (RFU), Mean, 0.5 x MIC [3, 4] [RFU] | Fluorescence intensity (RFU), Mean, 2 x MIC [3, 4] [RFU] | Fluorescence intensity (RFU), Mean, 4 x MIC [3, 4] [RFU] | Fluorescence intensity (RFU), Mean, 8 x MIC [3, 4] [RFU] | Fluorescence intensity (RFU), Mean, 16 x MIC [3, 4] [RFU] | Fluorescence intensity (RFU), Mean, 32 x MIC [3, 4] [RFU] | Fluorescence intensity (RFU), Mean, MIC [3, 4] [RFU] | other results |
| --- | --- | --- | --- | --- | --- | --- | --- | --- | --- |
| COc1c(N2CCNC(C)C2)c(F)cc2c(=O)c(C(=O)O)cn(C3CC3)c12 (centres unmarked) [Gatifloxacin] | 34 | 7621.42 | 3709.33 | 3006.58 | 2924.83 | 2191.44 | 1768.58 | 5214.92 | average Δlog10(CFU/ml) (killing) ([1]; drug conc. 0.1): -0.121 log10(CFU/ml); average Δlog10(CFU/ml) (killing) ([1]; drug conc. 0.5): -0.040 log10(CFU/ml); average Δlog10(CFU/ml) (killing) ([1]; drug conc. 2.5): 0.371 log10(CFU/ml); average Δlog10(CFU/ml) (killing) ([1]; drug conc. 10): 0.946 log10(CFU/ml); bactericidal effect against stationary-phase UPEC cultures ([2]; 20 µM, preliminary experiments): bactericidal effects |
| CC1COc2c(N3CCN(C)CC3)c(F)cc3c(=O)c(C(=O)O)cn1c23 (centres unmarked) [Ofloxacin] | 113 | 8574.42 | 3677.86 | 3135.58 | 2241.58 | 1713.97 | 1616.14 | 4797.17 | log10(CFU/ml) after treatment ([1]; concentration 0.1): 9.279 log10(CFU/ml) and 9.041 log10(CFU/ml) and 9.086 log10(CFU/ml); log10(CFU/ml) after treatment ([1]; concentration 0.5): 9.301 log10(CFU/ml) and 9.049 log10(CFU/ml) and 8.462 log10(CFU/ml); log10(CFU/ml) after treatment ([1]; concentration 2.5): 9.230 log10(CFU/ml) and 9.093 log10(CFU/ml) and 8.740 log10(CFU/ml); log10(CFU/ml) after treatment ([1]; concentration 10): 9.447 log10(CFU/ml) and 8.924 log10(CFU/ml) and 8.839 log10(CFU/ml); log10(CFU/ml) after treatment ([2]; concentration 0.25): 9.204 log10(CFU/ml) and 8.602 log10(CFU/ml) and 8.778 log10(CFU/ml); log10(CFU/ml) after treatment ([2]; concentration 0.5): 9.041 log10(CFU/ml) and 8.301 log10(CFU/ml) and 8.699 log10(CFU/ml); log10(CFU/ml) after treatment ([2]; concentration 1): 9.204 log10(CFU/ml) and 8.778 log10(CFU/ml) and 8.602 log10(CFU/ml); log10(CFU/ml) after treatment ([2]; concentration 2.5): 9.204 log10(CFU/ml) and 8.845 log10(CFU/ml) and 8.699 log10(CFU/ml); log10(CFU/ml) after treatment ([2]; concentration 5): 8.477 log10(CFU/ml) (2×) and 8.301 log10(CFU/ml); log10(CFU/ml) after treatment ([2]; concentration 10): 8.544 log10(CFU/ml) and 8.230 log10(CFU/ml) and 8.176 log10(CFU/ml); Fluorescence intensity (RFU), Mean, 0.25 x MIC ([3]; TC7 cells infected with GFP-expressing S. flexneri, 14 h treatment, 0.25 x MIC): 9690.38 RFU |
